The supplement of paper PMC10307832

Experiments:
Test in all cases: relative viability (nuclei count vs DMSO), 5 days (fraction); higher = more cells survive
[1] = compound: C[C@]12O[C@H](C[C@]1(O)CO)n1c3ccccc3c3c4c(c5c6ccccc6n2c5c31)CNC4=O [Lestaurtinib] + CC(=O)c1c(C)c2cnc(Nc3ccc(N4CCNCC4)cn3)nc2n(C2CCCC2)c1=O [Palbociclib] (partner 0.5 µM)
Outline: (§1)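 Each reported value is a median over duplicate plates. It expresses relative viability: treated-well nuclei count divided by vehicle-well nuclei count. Lung cancer cell lines in 1536-well plates were dosed by pin tool a day after seeding, alone with one drug or with a fixed anchor-drug dose plus five library-drug doses (not always all listed) in √10 steps, and nuclei were counted after 5 days.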

Lestaurtinib + AZD7762 = compound: C[C@]12O[C@H](C[C@]1(O)CO)n1c3ccccc3c3c4c(c5c6ccccc6n2c5c31)CNC4=O [Lestaurtinib] + NC(=O)Nc1cc(-c2cccc(F)c2)sc1C(=O)N[C@H]1CCCNC1 [AZD7762] (partner 0.2 µM)
Outline: as §1

[2] = compound: C[C@]12O[C@H](C[C@]1(O)CO)n1c3ccccc3c3c4c(c5c6ccccc6n2c5c31)CNC4=O [Lestaurtinib] + CC(=O)Nc1cccc(-n2c(=O)n(C3CC3)c(=O)c3c(Nc4ccc(I)cc4F)n(C)c(=O)c(C)c32)c1 [Trametinib] (partner 0.02 µM)
Outline: as §1

[3] = compound: C1/C(=C\C2=CC=CS2)/C(=O)/C(=C/C3=CC=CS3)/C1 + CS(=O)(=O)N1CCN(Cc2cc3nc(-c4cccc5[nH]ncc45)nc(N4CCOCC4)c3s2)CC1 [Pictilisib] (partner 1 µM)
Outline: as §1

| Cell Line | relative viability ([1]; first compound 0.005 µM) | relative viability ([1]; first compound 0.01581 µM) | relative viability ([1]; first compound 0.05 µM) | relative viability ([1]; first compound 0.1581 µM) | relative viability ([1]; first compound 0.5 µM) | relative viability (Lestaurtinib + AZD7762; first compound 0.005 µM) | relative viability (Lestaurtinib + AZD7762; first compound 0.01581 µM) | relative viability (Lestaurtinib + AZD7762; first compound 0.05 µM) | relative viability (Lestaurtinib + AZD7762; first compound 0.1581 µM) | relative viability (Lestaurtinib + AZD7762; first compound 0.5 µM) | relative viability ([2]; first compound 0.005 µM) | relative viability ([2]; first compound 0.01581 µM) | relative viability ([2]; first compound 0.05 µM) | relative viability ([2]; first compound 0.1581 µM) | relative viability ([2]; first compound 0.5 µM) | relative viability ([3]; first compound 0.2 µM) | relative viability ([3]; first compound 0.6325 µM) | relative viability ([3]; first compound 2 µM) | relative viability ([3]; first compound 6.325 µM) | relative viability ([3]; first compound 20 µM) |
| --- | --- | --- | --- | --- | --- | --- | --- | --- | --- | --- | --- | --- | --- | --- | --- | --- | --- | --- | --- | --- |
| HCC-366 | 0.371 | 0.424 | 0.471 | 0.391 | 0.172 | 0.315 | 0.305 | 0.339 | 0.447 | 0.556 | 0.365 | 0.489 | 0.399 | 0.342 | 0.149 | 0.132 | 0.137 | 0.204 | 0.191 | 0.0995 |
| HCC-827 | 0.533 | 0.489 | 0.444 | 0.382 | 0.43 | 0.198 | 0.196 | 0.219 | 0.189 | 0.18 | 0.536 | 0.527 | 0.573 | 0.456 | 0.458 | 1.12 | 1 | 1.1 | 0.933 | 1.01 |
| HOP-62 | 0.491 | 0.539 | 0.496 | 0.468 | 0.335 | 0.56 | 0.657 | 0.323 | 0.609 | 0.313 | 0.409 | 0.446 | 0.389 | 0.351 | 0.319 | 0.781 | 0.657 | 0.824 | 0.704 | 0.889 |
| IA-LM |  |  |  |  |  |  |  |  |  |  |  |  |  |  |  | 0.396 | 0.399 | 0.31 | 0.369 | 0.359 |
| LC-2-ad | 0.59 | 0.527 | 0.418 | 0.429 | 0.293 | 0.892 | 0.908 | 0.558 | 0.409 | 0.225 | 0.932 | 1.02 | 0.792 | 0.569 | 0.505 | 0.464 | 0.525 | 0.482 | 0.51 | 0.425 |
| NCI-H520 | 0.262 | 0.234 | 0.201 | 0.171 | 0.158 |  |  |  |  |  | 0.715 | 0.676 | 0.534 | 0.42 | 0.211 | 0.284 | 0.369 | 0.303 | 0.277 | 0.311 |
| NCI-H522 | 0.998 | 1 | 0.879 | 0.871 | 0.631 | 0.944 | 0.778 | 0.842 | 0.744 | 0.479 | 0.786 | 0.786 | 0.752 | 0.701 | 0.537 |  |  |  |  |  |
| NCI-H596 |  |  |  |  |  | 1.13 | 0.95 | 0.893 | 1.13 | 1.05 | 0.691 | 0.842 | 0.848 | 0.993 | 0.845 | 0.412 | 0.419 | 0.378 | 0.368 | 0.391 |
| NCI-H661 | 0.423 | 0.413 | 0.445 | 0.467 | 0.317 |  |  |  |  |  | 0.609 | 0.633 | 0.508 | 0.607 | 0.321 | 0.398 | 0.524 | 0.525 | 0.373 | 0.398 |
| NCI-H1299 |  |  |  |  |  |  |  |  |  |  |  |  |  |  |  | 0.79 | 0.863 | 0.806 | 0.758 | 0.799 |
| NCI-H1563 |  |  |  |  |  |  |  |  |  |  |  |  |  |  |  | 0.753 | 0.678 | 0.634 | 0.662 | 0.636 |
| NCI-H1648 |  | 0.317 |  | 0.393 | 0.466 |  | 1.47 |  | 0.977 | 0.644 |  | 0.728 |  | 0.458 | 0.367 |  |  |  |  |  |
| NCI-H1650 | 0.353 | 0.433 | 0.356 | 0.396 | 0.245 |  |  |  |  |  | 0.516 | 0.66 | 0.656 | 0.687 | 0.335 | 0.618 | 0.584 | 0.672 | 0.567 | 0.598 |
| NCI-H1703 |  |  |  |  |  | 0.122 | 0.115 | 0.107 | 0.108 | 0.0966 |  |  |  |  |  | 0.278 | 0.247 | 0.259 | 0.227 | 0.248 |
| NCI-H2009 | 0.221 | 0.226 | 0.183 | 0.194 | 0.133 |  |  |  |  |  | 0.28 | 0.233 | 0.206 | 0.235 | 0.185 | 0.911 | 0.959 | 0.833 | 0.691 | 0.846 |
| NCI-H2023 | 0.402 | 0.316 | 0.384 | 0.261 | 0.121 |  |  |  |  |  | 0.557 | 0.712 | 0.599 | 0.354 | 0.132 | 0.282 | 0.254 | 0.241 | 0.214 | 0.23 |
| NCI-H2228 | 1.03 | 1.05 | 0.407 | 0.28 | 0.275 |  |  |  |  |  | 0.589 | 0.575 | 0.452 | 0.322 | 0.156 | 0.337 | 0.362 | 0.479 | 0.295 | 0.287 |
| NCI-H2342 | 0.518 | 0.439 | 0.545 | 0.526 | 0.504 | 0.473 | 0.51 | 0.469 | 0.583 | 0.407 | 0.836 | 0.817 | 0.841 | 0.849 | 0.971 |  |  |  |  |  |
| SK-LU-1 | 0.333 | 0.335 | 0.356 | 0.3 | 0.288 |  |  |  |  |  | 0.452 | 0.476 | 0.415 | 0.384 | 0.318 | 0.583 | 0.709 | 0.649 | 0.56 | 0.665 |
| SK-MES-1 | 0.329 | 0.324 | 0.266 | 0.337 | 0.228 |  |  |  |  |  | 0.535 | 0.515 | 0.495 | 0.415 | 0.208 | 0.282 | 0.355 | 0.391 | 0.268 | 0.382 |
| SW 900 | 0.561 | 0.666 | 0.611 | 0.828 | 0.595 | 0.632 | 0.561 | 0.555 | 0.702 | 0.614 | 0.959 | 0.86 | 0.691 | 1.16 | 0.876 |  |  |  |  |  |
| SW 1573 | 0.373 | 0.385 | 0.298 | 0.306 | 0.113 |  |  |  |  |  | 0.712 | 0.672 | 0.491 | 0.367 | 0.144 | 0.54 | 0.523 | 0.551 | 0.377 | 0.512 |
